Data as given in US9340590B2 (priority 2011, dated 2016).
Positions of bridges follow the written chain, without caps; N, C: chain ends. Residues, ends and D or L forms follow the SMILES beside them.

Experiments:
[1] = biological target: hNav1.5 (Homo sapiens, UniProt Q14524); assay: cell-based
[2] = biological target: hNav1.7 (Homo sapiens, UniProt Q15858); assay: cell-based; conditions: Nav1.7 Use IC50
Chain of hNav1.7 (Q15858 whole entry, looked up): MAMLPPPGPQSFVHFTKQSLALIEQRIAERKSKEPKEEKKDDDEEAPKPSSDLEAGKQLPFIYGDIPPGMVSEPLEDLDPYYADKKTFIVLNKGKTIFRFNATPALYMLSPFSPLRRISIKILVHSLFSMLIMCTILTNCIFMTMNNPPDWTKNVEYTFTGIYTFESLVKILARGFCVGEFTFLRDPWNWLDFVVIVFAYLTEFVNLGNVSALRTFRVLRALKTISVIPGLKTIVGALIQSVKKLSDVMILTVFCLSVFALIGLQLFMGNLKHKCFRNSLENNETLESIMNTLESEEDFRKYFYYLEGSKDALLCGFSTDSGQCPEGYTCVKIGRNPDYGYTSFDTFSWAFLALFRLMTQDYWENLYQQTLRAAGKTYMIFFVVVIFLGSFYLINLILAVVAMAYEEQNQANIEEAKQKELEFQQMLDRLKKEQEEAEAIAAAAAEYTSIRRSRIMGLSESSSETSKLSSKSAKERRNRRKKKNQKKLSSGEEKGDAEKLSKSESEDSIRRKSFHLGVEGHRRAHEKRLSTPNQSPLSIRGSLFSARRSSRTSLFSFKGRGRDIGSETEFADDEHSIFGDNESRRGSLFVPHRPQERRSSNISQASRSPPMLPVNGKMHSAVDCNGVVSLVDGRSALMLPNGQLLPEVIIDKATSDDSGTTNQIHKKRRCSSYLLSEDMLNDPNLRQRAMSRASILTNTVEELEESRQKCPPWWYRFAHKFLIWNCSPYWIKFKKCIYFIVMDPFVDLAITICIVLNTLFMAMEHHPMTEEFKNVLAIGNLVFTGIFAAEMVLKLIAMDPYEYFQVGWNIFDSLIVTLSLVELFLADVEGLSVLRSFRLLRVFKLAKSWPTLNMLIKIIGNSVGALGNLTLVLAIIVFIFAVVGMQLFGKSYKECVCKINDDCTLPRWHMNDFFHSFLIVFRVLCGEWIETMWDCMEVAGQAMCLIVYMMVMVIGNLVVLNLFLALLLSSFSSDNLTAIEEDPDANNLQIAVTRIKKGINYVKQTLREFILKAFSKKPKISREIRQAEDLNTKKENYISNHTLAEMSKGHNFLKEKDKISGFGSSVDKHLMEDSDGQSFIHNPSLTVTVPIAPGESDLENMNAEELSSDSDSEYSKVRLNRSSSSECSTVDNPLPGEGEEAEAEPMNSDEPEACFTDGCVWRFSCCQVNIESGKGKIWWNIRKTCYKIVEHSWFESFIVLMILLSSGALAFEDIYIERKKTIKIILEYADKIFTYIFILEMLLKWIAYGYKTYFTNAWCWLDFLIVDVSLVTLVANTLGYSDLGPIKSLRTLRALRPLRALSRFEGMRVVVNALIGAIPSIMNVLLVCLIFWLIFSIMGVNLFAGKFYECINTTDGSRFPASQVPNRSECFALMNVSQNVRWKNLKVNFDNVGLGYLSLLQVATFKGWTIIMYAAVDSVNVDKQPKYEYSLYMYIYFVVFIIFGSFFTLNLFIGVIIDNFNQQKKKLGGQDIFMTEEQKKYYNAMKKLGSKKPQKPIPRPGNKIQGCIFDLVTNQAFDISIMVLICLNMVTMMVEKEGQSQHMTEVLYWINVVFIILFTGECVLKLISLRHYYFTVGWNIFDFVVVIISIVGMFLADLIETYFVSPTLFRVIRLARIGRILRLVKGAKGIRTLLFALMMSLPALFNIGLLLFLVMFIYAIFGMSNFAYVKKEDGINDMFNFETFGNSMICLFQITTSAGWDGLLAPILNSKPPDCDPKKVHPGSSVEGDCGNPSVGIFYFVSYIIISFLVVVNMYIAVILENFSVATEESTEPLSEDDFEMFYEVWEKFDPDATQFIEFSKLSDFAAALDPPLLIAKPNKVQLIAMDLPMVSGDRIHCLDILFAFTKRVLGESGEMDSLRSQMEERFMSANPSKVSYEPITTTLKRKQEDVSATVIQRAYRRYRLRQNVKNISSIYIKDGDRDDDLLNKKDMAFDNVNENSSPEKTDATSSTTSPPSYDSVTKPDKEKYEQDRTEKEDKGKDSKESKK

Chain of hNav1.5 (Q14524 whole entry, looked up): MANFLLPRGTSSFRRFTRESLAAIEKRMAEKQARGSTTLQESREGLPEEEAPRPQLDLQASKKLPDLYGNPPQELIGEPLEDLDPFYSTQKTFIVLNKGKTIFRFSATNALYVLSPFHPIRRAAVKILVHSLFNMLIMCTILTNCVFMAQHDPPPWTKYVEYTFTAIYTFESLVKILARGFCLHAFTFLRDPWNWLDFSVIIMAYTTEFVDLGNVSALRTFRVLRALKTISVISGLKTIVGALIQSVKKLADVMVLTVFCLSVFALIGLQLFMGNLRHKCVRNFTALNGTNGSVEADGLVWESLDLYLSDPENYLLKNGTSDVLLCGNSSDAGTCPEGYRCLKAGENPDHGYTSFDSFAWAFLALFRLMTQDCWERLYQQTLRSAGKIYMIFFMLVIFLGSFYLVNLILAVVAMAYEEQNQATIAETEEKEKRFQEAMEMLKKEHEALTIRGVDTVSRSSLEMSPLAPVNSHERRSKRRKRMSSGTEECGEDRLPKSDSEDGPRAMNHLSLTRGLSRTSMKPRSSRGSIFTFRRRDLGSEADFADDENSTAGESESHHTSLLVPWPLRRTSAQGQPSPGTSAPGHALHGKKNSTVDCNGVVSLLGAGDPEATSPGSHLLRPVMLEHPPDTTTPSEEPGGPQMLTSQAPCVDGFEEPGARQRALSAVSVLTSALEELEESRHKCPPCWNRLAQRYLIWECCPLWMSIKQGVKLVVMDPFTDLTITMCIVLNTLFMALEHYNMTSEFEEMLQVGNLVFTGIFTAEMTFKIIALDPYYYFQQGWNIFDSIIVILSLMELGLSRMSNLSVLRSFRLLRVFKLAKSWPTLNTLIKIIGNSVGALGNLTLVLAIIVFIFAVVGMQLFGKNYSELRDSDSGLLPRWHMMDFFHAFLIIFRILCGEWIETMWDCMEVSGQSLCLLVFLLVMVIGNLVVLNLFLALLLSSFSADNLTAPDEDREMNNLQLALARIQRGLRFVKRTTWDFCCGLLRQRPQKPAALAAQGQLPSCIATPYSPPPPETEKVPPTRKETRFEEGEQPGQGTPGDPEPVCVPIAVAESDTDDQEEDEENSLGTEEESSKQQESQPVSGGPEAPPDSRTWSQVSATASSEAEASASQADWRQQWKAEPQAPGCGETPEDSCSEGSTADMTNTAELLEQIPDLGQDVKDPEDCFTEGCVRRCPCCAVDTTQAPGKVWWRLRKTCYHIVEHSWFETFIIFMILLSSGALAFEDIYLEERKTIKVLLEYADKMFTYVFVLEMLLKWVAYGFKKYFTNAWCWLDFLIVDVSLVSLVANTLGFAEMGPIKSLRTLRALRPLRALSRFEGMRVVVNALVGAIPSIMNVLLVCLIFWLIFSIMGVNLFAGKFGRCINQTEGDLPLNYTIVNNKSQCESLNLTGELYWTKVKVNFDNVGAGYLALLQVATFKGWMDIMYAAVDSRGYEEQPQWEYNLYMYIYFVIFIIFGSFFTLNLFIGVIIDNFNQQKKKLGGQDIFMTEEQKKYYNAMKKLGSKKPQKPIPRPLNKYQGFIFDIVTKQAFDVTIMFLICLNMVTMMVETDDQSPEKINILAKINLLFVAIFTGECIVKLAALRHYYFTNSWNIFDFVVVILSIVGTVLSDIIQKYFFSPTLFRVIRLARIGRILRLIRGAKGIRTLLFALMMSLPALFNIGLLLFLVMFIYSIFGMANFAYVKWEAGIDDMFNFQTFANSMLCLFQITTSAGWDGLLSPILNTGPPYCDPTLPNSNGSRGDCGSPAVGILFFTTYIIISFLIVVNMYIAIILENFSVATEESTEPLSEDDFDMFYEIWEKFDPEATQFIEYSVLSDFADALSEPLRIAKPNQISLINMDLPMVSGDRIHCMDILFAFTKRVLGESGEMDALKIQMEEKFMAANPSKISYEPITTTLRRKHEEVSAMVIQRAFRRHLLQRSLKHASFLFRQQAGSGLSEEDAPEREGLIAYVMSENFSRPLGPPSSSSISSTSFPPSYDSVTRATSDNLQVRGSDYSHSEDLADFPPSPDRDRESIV

Structure (SMILES) | IC50 [1] | IC50 [2]
CC[C@H](C)[C@@H]1NC(=O)[C@@H]2CSSC[C@@H]3NC(=O)[C@H](C(C)C)NC(=O)[C@H](CC(C)C)NC(=O)[C@H](CC(N)=O)NC(=O)[C@@H]4CCCN4C(=O)[C@H](CCCNC(=N)N)NC(=O)[C@H](CSSC[C@H](NC(=O)[C@H](CC(=O)O)NC(=O)[C@H](CO)NC(=O)CN)C(=O)N[C@@H](CC(C)C)C(=O)NCC(=O)N[C@@H](C)C(=O)N[C@@H](Cc4ccccc4)C(=O)N[C@@H](CCCNC(=N)N)C(=O)N[C@@H](CCCCN)C(=O)N2)NC(=O)[C@H](CSSC[C@@H](C(=O)N[C@@H](CCCCN)C(=O)N[C@@H](Cc2ccc(O)cc2)C(=O)N[C@H](C(=O)N[C@@H](Cc2ccccc2)C(=O)N[C@@H](Cc2ccccc2)C(=O)O)C(C)C)NC(=O)[C@H](Cc2c[nH]c4ccccc24)NC(=O)[C@H](CCCNC(=N)N)NC(=O)[C@H](Cc2c[nH]cn2)NC(=O)[C@H]([C@@H](C)O)NC(=O)[C@H](CCCNC(=N)N)NC(=O)[C@H](CO)NC3=O)NC(=O)[C@H](CCCCN)NC(=O)[C@H](CC(=O)O)NC(=O)[C@H](CC(N)=O)NC(=O)[C@H](CC(=O)O)NC(=O)[C@@H]2CCCN2C1=O (H-GSDCLGAFRKCIPDNDKCCRPNLVCSRTHRWCKYVFF-OH; disulfide 4-19, 11-25, 18-32) | > 10000 nM | 47 nM
CC[C@H](C)[C@@H]1NC(=O)[C@@H]2CSSC[C@@H]3NC(=O)[C@H](C(C)C)NC(=O)[C@H](CC(C)C)NC(=O)[C@H](CC(N)=O)NC(=O)[C@@H]4CCCN4C(=O)[C@H](CCCNC(=N)N)NC(=O)[C@H](CSSC[C@H](NC(=O)[C@@H](N)CC(=O)O)C(=O)N[C@@H](CC(C)C)C(=O)NCC(=O)N[C@@H](Cc4ccccc4)C(=O)N[C@@H](CCSC)C(=O)N[C@@H](CCCNC(=N)N)C(=O)N[C@@H](CCCCN)C(=O)N2)NC(=O)[C@H](CSSC[C@@H](C(=O)N[C@@H](CCCCN)C(=O)N[C@@H](Cc2ccc(O)cc2)C(=O)N[C@H](C(=O)N[C@@H](Cc2ccccc2)C(=O)N[C@@H](Cc2ccccn2)C(N)=O)C(C)C)NC(=O)[C@H](Cc2c[nH]c4ccccc24)NC(=O)[C@H](CCCCN)NC(=O)[C@H](Cc2c[nH]cn2)NC(=O)[C@H]([C@@H](C)O)NC(=O)[C@H](CCCNC(=N)N)NC(=O)[C@H](CO)NC3=O)NC(=O)[C@H](CCCCN)NC(=O)[C@H](CC(=O)O)NC(=O)[C@H](CC(N)=O)NC(=O)[C@H](CC(=O)O)NC(=O)[C@@H]2CCCN2C1=O [GpTx-1(1-34)-2PAL] | > 10000 nM | 27 nM
CC[C@H](C)[C@@H]1NC(=O)[C@@H]2CSSC[C@@H]3NC(=O)[C@H](C(C)C)NC(=O)[C@H](CC(C)C)NC(=O)[C@H](CC(N)=O)NC(=O)[C@@H]4CCCN4C(=O)[C@H](CCCNC(=N)N)NC(=O)[C@H](CSSC[C@H](NC(=O)[C@@H](N)CC(=O)O)C(=O)N[C@@H](CC(C)C)C(=O)NCC(=O)N[C@@H](C)C(=O)N[C@@H](Cc4ccccc4)C(=O)N[C@@H](CCCNC(=N)N)C(=O)N[C@@H](CCCCN)C(=O)N2)NC(=O)[C@H](CSSC[C@@H](C(=O)N[C@@H](CCCCN)C(=O)N[C@@H](Cc2ccc(O)cc2)C(=O)N[C@H](C(=O)N[C@@H](Cc2ccccc2)C(N)=O)C(C)C)NC(=O)[C@H](Cc2c[nH]c4ccccc24)NC(=O)[C@H](CCCCN)NC(=O)[C@H](Cc2c[nH]cn2)NC(=O)[C@H]([C@@H](C)O)NC(=O)[C@H](C)NC(=O)[C@H](CO)NC3=O)NC(=O)[C@H](CCCCN)NC(=O)[C@H](CC(=O)O)NC(=O)[C@H](CC(N)=O)NC(=O)[C@H](CC(=O)O)NC(=O)[C@@H]2CCCN2C1=O [[Ala5,25;Phe6]GpTx-1(1-34)] (H-DCLGAFRKCIPDNDKCCRPNLVCSATHKWCKYVF-NH2; disulfide 2-17, 9-23, 16-30) | > 10000 nM | 86 nM
